From patent US20240228499A1, “MASP-2 INHIBITORS AND METHODS OF USE” (Omeros Corporation, priority 2022, published 2024) come the findings set out here.

Counter-ions that a name gives are not always drawn.

The target of one experiment is T1, MASP-2 (CCP1-CCP2-SP) (Homo sapiens, UniProt O00187).
T1 construct: 15 μL of Enzyme MASP-2 (CCP1-CCP2-SP) in Assay Buffer
The experiment can be described thus: Enzymatic assay for MASP-2 inhibitory activity (fluorogenic substrate). The class given is biochemical. Particulars: room temperature, 20 mM Hepes pH 7.4, 20 min. The protocol:
The MASP-2 assay utilizes a fluorogenic substrate, based on the cleavage site for its natural substrate C2. The assay was run at room temperature in an assay buffer containing 20 mM HEPES, pH 7.4, 140 mM NaCl and 0.1% Tween 20. Assay parameters were adjusted such that the assay was linear with respect to time, enzyme, and substrate concentrations. Under the optimized assays conditions, IC50 values were equivalent to Ki values, except in the few cases of “tight binding” inhibitors. Cases of “tight binding” or possible “slow binding” inhibitors were handled by the methods described in Copeland R. A. (2013) Evaluation of Enzyme Inhibitors in Drug Discovery. 2nd Ed., John Wiley and Sons, Inc., Chapters 5-7.
The MASP-2 assay protocol was carried out as follows. Test compounds were serially diluted in DMSO and then 100 nL of each dilution was transferred to the assay plate(s). 10 μL of Assay Buffer was added, followed by 15 μL of Enzyme MASP-2 (CCP1-CCP2-SP) in Assay Buffer. 15 μL of Substrate in Assay Buffer was then added and the mixture was mixed to start the reaction. After 20 min at room temperature, 15 μL of a stop solution (0.1 M acetic acid) was added, the sample was mixed, and the plates were read on a SpectraMax i3× Microplate Reader with the data exported as an Excel file. Each assay plate included a “no inhibitor” (DMSO only) control, a “no enzyme” control, and a reference inhibitor control. % Activity values=100*(average test comp. fluorescence−average “no enzyme” fluorescence)/(average “DMSO only” fluorescence−average “no enzyme” fluorescence). IC50 and Ki replicate values were very reproducible, with values well within +2-fold.

The target in the next experiment is T2, human a-thrombin (Homo sapiens, UniProt P00734).
T2 construct: enzyme (human a-thrombin (BioPharm® Lab.)); purchased BioPharm Lab
Kind of experiment: Enzymatic assay for thrombin (fluorogenic peptide substrate Boc-VPR-AMC). The class given is biochemical. To be noted: room temperature, 20 mM Hepes pH 7.4, 20 min. The method, then:
The thrombin assay utilizes a fluorogenic peptide substrate (Boc-VPR-AMC (R&D Systems) and was run at room temperature in an assay buffer containing 20 mM Hepes, pH 7.4, 140 mM NaCl and 0.1% Tween 20. Assay parameters were adjusted such that the assay was linear with respect to time, enzyme, and substrate concentrations. Under these optimized assays conditions, IC50 values were equivalent to Ki values, except in a few cases of “tight binding” inhibitors. Cases of “tight binding” or possible “slow binding” inhibitors were handled by the methods described in Copeland R.A. (2013) Evaluation of Enzyme Inhibitors in Drug Discovery. 2nd Ed. John Wiley and Sons, Inc., Chapters 5-7.
The thrombin assay protocol was carried out as follows. Test compounds were serially diluted in DMSO and then 100 nL of each dilution was transferred to the assay plate(s). 10 μL of Assay Buffer was added, followed by 15 μL of enzyme (human a-thrombin (BioPharm® Lab.)) in assay buffer. 15 μL of substrate in assay buffer was then added and the sample mixed to start the reaction. After 20 min at room temperature, 15 μL of a stop solution (0.1 M acetic acid) was added, the sample was mixed, and the plates were read on a SpectraMax® i3× Microplate Reader with the data exported as Excel files. Each assay plate included a “no inhibitor” (DMSO only) control, a “no enzyme” control, and a reference inhibitor control. % Activity values=100*(ave. test comp. fluorescence−ave. “no enz” fluorescence)/(ave. “DMSO only” fluorescence−ave. “no enz” fluorescence). IC50 and Ki values were very reproducible, with values falling well within +2-fold.

T1 sequence (O00187 287-686 limits assumed): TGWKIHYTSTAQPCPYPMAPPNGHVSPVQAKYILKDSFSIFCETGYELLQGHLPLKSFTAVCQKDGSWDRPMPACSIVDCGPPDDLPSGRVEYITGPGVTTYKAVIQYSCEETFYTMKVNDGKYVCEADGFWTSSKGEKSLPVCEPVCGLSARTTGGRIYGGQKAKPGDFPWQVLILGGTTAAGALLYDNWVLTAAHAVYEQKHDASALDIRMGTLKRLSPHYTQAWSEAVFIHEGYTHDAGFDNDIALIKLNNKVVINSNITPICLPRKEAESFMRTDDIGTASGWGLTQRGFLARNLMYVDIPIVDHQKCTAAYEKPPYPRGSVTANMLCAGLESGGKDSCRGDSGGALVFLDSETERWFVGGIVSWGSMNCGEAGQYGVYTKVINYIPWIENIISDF

The term Ki denotes a measure of affinity in units of concentration, obtained from inhibition or displacement. As to `Cc1cccc(C(C)Nc2cnc3n(c2=O)[C@H](C(=O)NCc2cc4c(s2)CNC4)CC3)c1` (single isomer, unassigned) [Compound 69, di-trifluoroacetate], the results for the Ki at MASP-2 (CCP1-CCP2-SP) and on human a-thrombin were less than 500 nM and 500 to 2500 nM, respectively.

As for `Cc1cccc(C(C)Nc2cnc3n(c2=O)[C@H](C(=O)NCc2cc4c(s2)CNC4)CC3)c1` (single isomer, unassigned) [Compound 70, di-trifluoroacetate], the inhibitory constant (Ki) at MASP-2 (CCP1-CCP2-SP) was less than 500 nM; at human a-thrombin it was 10000 to 25000 nM.

As for `Cc1cc(C)cc(CNc2cnc3n(c2=O)[C@H](C(=O)NCc2ccc(N)nc2C)CC3)c1` [Compound 1, (S)—N-((6-amino-2-methylpyridin-3-yl)methyl)-3-((3,5-dimethylbenzyl)amino)-4-oxo-4,6,7,8-tetrahydropyrrolo[1,2-a]pyrimidine-6-carboxamide], the Ki at MASP-2 (CCP1-CCP2-SP) is less than 500 nM; at human a-thrombin it was 500 to 2500 nM.

For the compound `COc1cc(C)cc(CNc2cnc3n(c2=O)[C@H](C(=O)NCc2ccc(N)nc2C)CC3)c1` [Compound 2, (S)—N-((6-amino-2-methylpyridin-3-yl)methyl)-3-((3-methoxy-5-methylbenzyl)amino)-4-oxo-4,6,7,8-tetrahydropyrrolo[1,2-a]pyrimidine-6-carboxamide], the inhibition constant Ki at MASP-2 (CCP1-CCP2-SP) and at human a-thrombin was less than 500 nM in each case.

`Cc1ccc(F)c(CNc2cnc3n(c2=O)[C@H](C(=O)NCc2ccc(N)nc2C)CC3)c1` [Compound 3, (S)—N-((6-amino-2-methylpyridin-3-yl)methyl)-3-((2-fluoro-5-methylbenzyl)amino)-4-oxo-4,6,7,8-tetrahydropyrrolo[1,2-a]pyrimidine-6-carboxamide]: the results for the Ki at MASP-2 (CCP1-CCP2-SP) and on human a-thrombin were less than 500 nM and 500 to 2500 nM, respectively.

Consider `Cc1cc(C)cc(CNc2cnc3n(c2=O)[C@H](C(=O)NCc2ccc(N)nc2)CC3)c1` [Compound 4, (S)—N-((6-aminopyridin-3-yl)methyl)-3-((3,5-dimethylbenzyl)amino)-4-oxo-4,6,7,8-tetrahydropyrrolo[1,2-a]pyrimidine-6-carboxamide], for which the Ki was less than 500 nM at MASP-2 (CCP1-CCP2-SP) and 500 to 2500 nM on human a-thrombin.

In the case of `Cc1cc(C)cc(CNc2cnc3n(c2=O)[C@H](C(=O)NCc2cc(Cl)ccc2-n2cnnn2)CC3)c1` [Compound 5, (S)—N-(5-chloro-2-(1H-tetrazol-1-yl)benzyl)-3-((3,5-dimethylbenzyl)amino)-4-oxo-4,6,7,8-tetrahydropyrrolo[1,2-a]pyrimidine-6-carboxamide trifluoroacetic acid], the inhibition constant Ki at MASP-2 (CCP1-CCP2-SP) and on human a-thrombin was less than 500 nM each time.

`Cc1cc(C)cc(CNc2cnc3n(c2=O)[C@H](C(=O)NCc2cc4cnccc4[nH]2)CC3)c1` [Compound 6, (S)—N-((1H-pyrrolo[3,2-c]pyridin-2-yl)methyl)-3-((3,5-dimethylbenzyl)amino)-4-oxo-4,6,7,8-tetrahydropyrrolo[1,2-a]pyrimidine-6-carboxamide]: the Ki at MASP-2 (CCP1-CCP2-SP) was less than 500 nM; on human a-thrombin, 2500 to 10000 nM.

`Cc1cc(C)cc(CNc2cnc3n(c2=O)[C@H](C(=O)NCc2cc4cnc(C)cc4[nH]2)CC3)c1` [Compound 7, (S)-3-((3,5-dimethylbenzyl)amino)-N-((6-methyl-1H-pyrrolo[3,2-c]pyridin-2-yl)methyl)-4-oxo-4,6,7,8-tetrahydropyrrolo[1,2-a]pyrimidine-6-carboxamide, trifluoroacetate]: the Ki on MASP-2 (CCP1-CCP2-SP) is less than 500 nM; at human a-thrombin it was greater than 25000 nM.

`Cc1cc(C#N)cc(CNc2cnc3n(c2=O)[C@H](C(=O)NCc2ccc(N)nc2C)CC3)c1` [Compound 8, (S)—N-((6-amino-2-methylpyridin-3-yl)methyl)-3-((3-cyano-5-methylbenzyl)amino)-4-oxo-4,6,7,8-tetrahydropyrrolo[1,2-a]pyrimidine-6-carboxamide]: the inhibition constant (Ki) on MASP-2 (CCP1-CCP2-SP) was less than 500 nM; at human a-thrombin, 500 to 2500 nM.

For the compound `COc1ccc(C)cc1CNc1cnc2n(c1=O)[C@H](C(=O)NCc1ccc(N)nc1C)CC2` [Compound 9, (S)-N-((6-amino-2-methylpyridin-3-yl)methyl)-3-((2-methoxy-5-methylbenzyl)amino)-4-oxo-4,6,7,8-tetrahydropyrrolo[1,2-a]pyrimidine-6-carboxamide, trifluoroacetate], the figures for the Ki on MASP-2 (CCP1-CCP2-SP) and at human a-thrombin were less than 500 nM and 2500 to 10000 nM, respectively.

As for `COc1c(C)cccc1CNc1cnc2n(c1=O)[C@H](C(=O)NCc1ccc(N)nc1C)CC2` [Compound 10, (S)—N-((6-amino-2-methylpyridin-3-yl)methyl)-3-((2-methoxy-3-methylbenzyl)amino)-4-oxo-4,6,7,8-tetrahydropyrrolo[1,2-a]pyrimidine-6-carboxamide, trifluoroacetate], the inhibition constant (Ki) on MASP-2 (CCP1-CCP2-SP) is less than 500 nM; on human a-thrombin, 500 to 2500 nM.

On to `Cc1nc(N)ccc1CNC(=O)[C@@H]1CCc2ncc(NCc3cccc(N4CCOCC4)c3)c(=O)n21` [Compound 11, (S)-N-((6-amino-2-methylpyridin-3-yl)methyl)-3-((3-morpholinobenzyl)amino)-4-oxo-4,6,7,8-tetrahydropyrrolo[1,2-a]pyrimidine-6-carboxamide, hydrochloride], for which the Ki was less than 500 nM at MASP-2 (CCP1-CCP2-SP) and 500 to 2500 nM on human a-thrombin.

Regarding `Cc1nc(N)ccc1CNC(=O)[C@@H]1CCc2ncc(NCc3ccc4c(c3)OC(F)(F)O4)c(=O)n21` [Compound 12, (S)—N-((6-amino-2-methylpyridin-3-yl)methyl)-3-(((2,2-difluorobenzo[D][1,3]dioxol-5-yl)methyl)amino)-4-oxo-4,6,7,8-tetrahydropyrrolo[1,2-a]pyrimidine-6-carboxamide, trifluoroacetate], the inhibitory constant (Ki) at MASP-2 (CCP1-CCP2-SP) was less than 500 nM; at human a-thrombin, 2500 to 10000 nM.

Turning to `Cc1nc(N)ccc1CNC(=O)[C@@H]1CCc2ncc(NCc3cccc(C(=O)O)c3)c(=O)n21` [Compound 13, (S)-3-(((6-(((6-amino-2-methylpyridin-3-yl)methyl)carbamoyl)-4-oxo-4,6,7,8-tetrahydropyrrolo[1,2-a]pyrimidin-3-yl)amino)methyl)benzoic acid], the Ki on MASP-2 (CCP1-CCP2-SP) was less than 500 nM; at human a-thrombin, 10000 to 25000 nM.

`Cc1nc(N)ccc1CNC(=O)[C@@H]1CCc2ncc(NCc3cccc4c3OCCO4)c(=O)n21` [Compound 14, (S)-N-((6-amino-2-methylpyridin-3-yl)methyl)-3-(((2,3-dihydrobenzo[b][1,4]dioxin-5-yl)methyl)amino)-4-oxo-4,6,7,8-tetrahydropyrrolo[1,2-a]pyrimidine-6-carboxamide]: the Ki is less than 500 nM on MASP-2 (CCP1-CCP2-SP) and 2500 to 10000 nM at human a-thrombin.

For the compound `Cc1cc(C)cc(CNc2cnc3n(c2=O)[C@H](C(=O)N[C@@H](C)c2ccc(N)nc2)CC3)c1` [Compound 15, (S)—N—((S)-1-(6-aminopyridin-3-yl)ethyl)-3-((3,5-dimethylbenzyl)amino)-4-oxo-4,6,7,8-tetrahydropyrrolo[1,2-a]pyrimidine-6-carboxamide], the Ki was less than 500 nM at MASP-2 (CCP1-CCP2-SP) and greater than 25000 nM at human a-thrombin.

Regarding `Cc1cc(C)cc(CNc2cnc3n(c2=O)[C@H](C(=O)N[C@H](C)c2ccc(N)nc2)CC3)c1` [Compound 16], the values for the inhibitory constant (Ki) on MASP-2 (CCP1-CCP2-SP) and at human a-thrombin were less than 500 nM and greater than 25000 nM, respectively.

On to `Cc1cc(C)cc(CNc2cnc3n(c2=O)[C@H](C(=O)NCc2cncc(Cl)c2)CC3)c1` [Compound 17, (S)—N-((5-chloropyridin-3-yl)methyl)-3-((3,5-dimethylbenzyl)amino)-4-oxo-4,6,7,8-tetrahydropyrrolo[1,2-a]pyrimidine-6-carboxamide, trifluoroacetate], for which the Ki on MASP-2 (CCP1-CCP2-SP) and on human a-thrombin was less than 500 nM in each case.

Regarding `Cc1cc(C)cc(CNc2cnc3n(c2=O)[C@H](C(=O)NCc2ccnc(C)c2)CC3)c1` [Compound 19, (S)-3-((3,5-dimethylbenzyl)amino)-N-((2-methylpyridin-4-yl)methyl)-4-oxo-4,6,7,8-tetrahydropyrrolo[1,2-a]pyrimidine-6-carboxamide], the results for the Ki on MASP-2 (CCP1-CCP2-SP) and at human a-thrombin were 500 to 2500 nM and greater than 25000 nM, respectively.
